Tests used:
microsomal stability [1] = type: in vitro ADME, Mouse; settings: for microsomal stability (% at time) / microsomal stability (% at time), Negative control (excluding NADPH): Mouse
Procedure: (§1) The microsomal stability of N-(2,6-dichloro-3,5-dimethoxyphenyl)-1-(6-((4-(4-ethylpiperazin-1-yl)phenyl)amino)pyrimidin-4-yl)-1H-benz[d]imidazol-2-amine synthesized in Example 1, as a representative compound of the present invention, was evaluated.

[2] = in-vivo PK profile, mouse PK; settings: ICR mice
Text: (§2) The in-vivo PK profile (mouse PK/ICR mice and rat PK/Sprague-Dawley rat) of N-(2,6-dichloro-3,5-dimethoxyphenyl)-1-(6-((4-(4-ethylpiperazin-1-yl)phenyl)amino)pyrimidin-4-yl)-1H-benz[d]imidazol-2-amine synthesized in Example 1 is as follows.

[3] = in-vivo PK profile, rat PK; settings: Sprague-Dawley rat; for MRT inf: read-out: MRT(0-∞)
Text: as §2

CYP3A4 = CYP3A4 (Homo sapiens, UniProt P08684); test: inhibition activity against CYPs (cytochromes P450); type: in vitro ADME
CYP3A4, sequence (P08684 whole entry): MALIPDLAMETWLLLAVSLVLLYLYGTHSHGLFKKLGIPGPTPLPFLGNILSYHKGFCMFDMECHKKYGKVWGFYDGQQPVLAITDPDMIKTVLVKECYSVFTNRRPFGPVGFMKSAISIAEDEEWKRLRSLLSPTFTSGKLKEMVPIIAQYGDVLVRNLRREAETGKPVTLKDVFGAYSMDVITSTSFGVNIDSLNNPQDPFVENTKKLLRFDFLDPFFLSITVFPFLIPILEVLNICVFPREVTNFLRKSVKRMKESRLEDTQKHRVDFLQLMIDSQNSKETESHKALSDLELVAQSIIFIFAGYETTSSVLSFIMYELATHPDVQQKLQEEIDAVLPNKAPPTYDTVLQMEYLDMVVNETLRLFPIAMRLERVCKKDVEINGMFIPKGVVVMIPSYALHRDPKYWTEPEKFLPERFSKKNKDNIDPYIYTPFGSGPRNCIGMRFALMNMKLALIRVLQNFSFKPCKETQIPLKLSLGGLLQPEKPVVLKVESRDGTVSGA
Procedure: (§3) The inhibition activity (inhibition rate, %) of N-(2,6-dichloro-3,5-dimethoxyphenyl)-1-(6-((4-(4-ethylpiperazin-1-yl)phenyl)amino)pyrimidin-4-yl)-1H-benz[d]imidazol-2-amine synthesized in Example 1, as a representative compound of the present invention, against CYPs (cytochromes P450) was measured in order to investigate the risk of drug side effects.

CYP2D6 = CYP2D6 (Homo sapiens, UniProt P10635); test: as above; type: in vitro ADME
CYP2D6, sequence (P10635 whole entry): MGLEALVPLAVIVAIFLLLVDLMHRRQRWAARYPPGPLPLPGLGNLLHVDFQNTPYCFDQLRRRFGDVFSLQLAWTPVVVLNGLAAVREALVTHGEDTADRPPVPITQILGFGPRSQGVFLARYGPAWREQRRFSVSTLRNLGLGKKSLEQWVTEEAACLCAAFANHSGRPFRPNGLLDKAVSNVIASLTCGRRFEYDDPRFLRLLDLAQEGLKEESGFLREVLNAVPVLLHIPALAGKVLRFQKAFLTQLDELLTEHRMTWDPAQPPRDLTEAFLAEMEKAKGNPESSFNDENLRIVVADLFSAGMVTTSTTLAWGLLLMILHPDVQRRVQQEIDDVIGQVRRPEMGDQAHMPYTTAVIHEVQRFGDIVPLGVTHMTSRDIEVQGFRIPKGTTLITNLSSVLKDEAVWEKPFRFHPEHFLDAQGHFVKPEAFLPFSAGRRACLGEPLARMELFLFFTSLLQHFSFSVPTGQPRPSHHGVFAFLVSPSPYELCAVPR
Procedure: as §3

CYP2C9 = CYP2C9 (Homo sapiens, UniProt P11712); test: as above; type: in vitro ADME
CYP2C9, sequence (P11712 whole entry): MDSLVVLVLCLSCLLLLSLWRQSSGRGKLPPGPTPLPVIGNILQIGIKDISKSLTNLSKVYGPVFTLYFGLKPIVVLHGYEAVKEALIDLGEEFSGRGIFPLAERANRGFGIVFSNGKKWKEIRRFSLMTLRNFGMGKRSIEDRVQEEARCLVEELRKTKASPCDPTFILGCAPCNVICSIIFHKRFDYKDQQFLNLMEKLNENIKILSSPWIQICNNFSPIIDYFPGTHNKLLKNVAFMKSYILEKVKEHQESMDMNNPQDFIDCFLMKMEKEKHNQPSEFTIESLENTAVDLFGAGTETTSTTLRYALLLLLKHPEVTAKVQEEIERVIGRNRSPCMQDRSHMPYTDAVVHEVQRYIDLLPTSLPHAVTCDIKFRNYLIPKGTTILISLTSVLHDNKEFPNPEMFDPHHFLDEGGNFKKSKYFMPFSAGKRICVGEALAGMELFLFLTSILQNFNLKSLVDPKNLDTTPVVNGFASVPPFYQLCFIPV
Procedure: as §3

CYP1A2 = biological target: T1, CYP1A2 (Homo sapiens, UniProt P05177); test: as above; type: in vitro ADME
T1 sequence (P05177 1-516): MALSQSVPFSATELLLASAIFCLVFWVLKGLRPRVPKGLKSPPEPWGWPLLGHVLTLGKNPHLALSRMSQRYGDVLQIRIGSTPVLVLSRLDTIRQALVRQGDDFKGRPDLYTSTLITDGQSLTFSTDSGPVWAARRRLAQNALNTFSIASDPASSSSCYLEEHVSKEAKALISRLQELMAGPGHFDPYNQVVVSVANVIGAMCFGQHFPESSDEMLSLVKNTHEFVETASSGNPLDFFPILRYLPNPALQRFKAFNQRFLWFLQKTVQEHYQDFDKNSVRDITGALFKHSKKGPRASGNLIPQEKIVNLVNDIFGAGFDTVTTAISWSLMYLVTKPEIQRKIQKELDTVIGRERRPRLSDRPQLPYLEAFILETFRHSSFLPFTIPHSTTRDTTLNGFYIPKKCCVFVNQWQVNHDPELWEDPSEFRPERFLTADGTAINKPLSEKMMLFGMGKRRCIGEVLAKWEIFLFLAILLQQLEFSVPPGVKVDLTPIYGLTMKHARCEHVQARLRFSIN
Procedure: as §3

CYP2C19 = CYP2C19 (Homo sapiens, UniProt P33261); test: as above; type: in vitro ADME
CYP2C19, sequence (P33261 whole entry): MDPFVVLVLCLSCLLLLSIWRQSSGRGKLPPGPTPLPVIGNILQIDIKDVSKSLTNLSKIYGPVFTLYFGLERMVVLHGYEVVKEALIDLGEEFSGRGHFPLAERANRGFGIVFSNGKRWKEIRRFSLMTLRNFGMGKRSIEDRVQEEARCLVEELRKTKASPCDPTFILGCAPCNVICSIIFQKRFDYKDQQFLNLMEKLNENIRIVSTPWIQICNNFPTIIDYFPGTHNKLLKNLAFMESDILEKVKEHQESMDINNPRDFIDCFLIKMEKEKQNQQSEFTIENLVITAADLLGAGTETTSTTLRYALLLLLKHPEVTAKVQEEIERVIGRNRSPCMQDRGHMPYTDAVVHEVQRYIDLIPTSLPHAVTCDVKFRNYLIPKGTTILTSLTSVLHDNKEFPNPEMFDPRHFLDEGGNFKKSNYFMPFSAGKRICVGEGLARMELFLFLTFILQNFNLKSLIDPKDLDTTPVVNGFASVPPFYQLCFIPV
Procedure: as §3

microsomal stability [4] = type: in vitro ADME, Dog; settings: for microsomal stability (% at time): Dog
Procedure: as §1

[5] = tested on: bladder cancer cell line RT112; test: inhibition of proliferation of cancer cells; type: cell-based; settings: Homo sapiens, RT-112, read-out: Ability of inhibiting proliferation of RT112 (GI50)
Procedure: The ability of the compound of the present invention of inhibiting the proliferation of the bladder cancer cell line RT112 was determined as the GI50 value.

[6] = from 0.1-50 μM, unit from the table's concentration head, read-out: Expected IC50

microsomal stability (% at time) (microsomal stability [1]; 0 min): 100.00%
microsomal stability (% at time), Negative control (excluding NADPH) (microsomal stability [1]; 0 min): 100.00%
microsomal stability (% at time) (microsomal stability [1]; 5 min): 62.73%
microsomal stability (% at time), Negative control (excluding NADPH) (microsomal stability [1]; 5 min): 103.56%
microsomal stability (% at time) (microsomal stability [1]; 10 min): 40.77%
microsomal stability (% at time), Negative control (excluding NADPH) (microsomal stability [1]; 10 min): 103.56%
microsomal stability (% at time) (microsomal stability [1]; 15 min): 29.27%
microsomal stability (% at time), Negative control (excluding NADPH) (microsomal stability [1]; 15 min): 102.67%
microsomal stability (% at time) (microsomal stability [1]; 30 min): 11.88%
microsomal stability (% at time), Negative control (excluding NADPH) (microsomal stability [1]; 30 min): 106.67%
microsomal stability (% at time) (microsomal stability [1]; 45 min): 3.87%
microsomal stability (% at time), Negative control (excluding NADPH) (microsomal stability [1]; 45 min): 106.67%
microsomal stability (% at time) (microsomal stability [1]; 60 min): 3.64%
microsomal stability (% at time), Negative control (excluding NADPH) (microsomal stability [1]; 60 min): 104.44%
half-life (microsomal stability [1]; microsomes, Mouse microsomal stability): 9.93 min
F* ([2]; PO 10 mg/kg): 23.44%
AUC(0-inf) ([2]; mouse, in vivo, IV 5 mg/kg): 350 ng·h/mL
AUC(0-t) ([2]; mouse, in vivo, IV 5 mg/kg): 322 ng·h/mL
Cmax ([2]; mouse, in vivo, IV 5 mg/kg): 111 ng/mL
Tmax ([2]; mouse, in vivo, IV 5 mg/kg): 0.083 h
clearance ([2]; mouse, in vivo, IV 5 mg/kg): 238 mL/min/kg
half-life ([2]; mouse, in vivo, IV 5 mg/kg): 1.83 h
MRT inf ([2]; mouse, in vivo, IV 5 mg/kg, read-out: MRT(0-∞)): 3.56 h
Vd ([2]; mouse, in vivo, IV 5 mg/kg, read-out: Vz): 37.7 L/kg
AUC(0-t) ([2]; mouse, in vivo, PO 10 mg/kg): 151 ng·h/mL
Cmax ([2]; mouse, in vivo, PO 10 mg/kg): 27.1 ng/mL
Tmax ([2]; mouse, in vivo, PO 10 mg/kg): 6 h
F* ([3]; PO 5 mg/kg): 13.46%
AUC(0-inf) ([3]; in vivo, IV 5 mg/kg): 884 ng·h/mL
AUC(0-t) ([3]; in vivo, IV 5 mg/kg): 844 ng·h/mL
Cmax ([3]; in vivo, IV 5 mg/kg): 271 ng/mL
Tmax ([3]; in vivo, IV 5 mg/kg): 0.083 h
clearance ([3]; in vivo, IV 5 mg/kg): 97.3 mL/min/kg
half-life ([3]; in vivo, IV 5 mg/kg): 5.75 h
MRT inf ([3]; in vivo, IV 5 mg/kg): 6.37 h
Vd ([3]; in vivo, IV 5 mg/kg, read-out: Vz): 48 L/kg
AUC(0-inf) ([3]; in vivo, PO 5 mg/kg): 652 ng·h/mL
AUC(0-t) ([3]; in vivo, PO 5 mg/kg): 129 ng·h/mL
Cmax ([3]; in vivo, PO 5 mg/kg): 11.6 ng/mL
Tmax ([3]; in vivo, PO 5 mg/kg): 5.33 h
half-life ([3]; in vivo, PO 5 mg/kg): 9.14 h
MRT inf ([3]; in vivo, PO 5 mg/kg): 12.6 h
inhibition at 10 µM (CYP3A4; concentration 10 μM): 31.8%
IC50 (CYP3A4; [6]): 32.4 µM
inhibition at 0.1 µM (CYP3A4; human, concentration 0.1 μM): 3.09%
inhibition at 0.5 µM (CYP3A4; human, concentration 0.5 μM): 3.7%
inhibition at 5 µM (CYP3A4; human, concentration 5 μM): 24.4%
inhibition at 25 µM (CYP3A4; human, concentration 25 μM): 49.7%
inhibition at 50 µM (CYP3A4; human, concentration 50 μM): 55.5%
inhibition activity against CYP, statement in words (CYP3A4; summary of Table 5): no inhibition activity
inhibition at 10 µM (CYP2D6; concentration 10 μM): 6.12%
IC50 (CYP2D6; [6]): > 50 µM
inhibition at 0.1 µM (CYP2D6; human, concentration 0.1 μM): -3.15%
inhibition at 0.5 µM (CYP2D6; human, concentration 0.5 μM): -4.76%
inhibition at 5 µM (CYP2D6; human, concentration 5 μM): -2.56%
inhibition at 25 µM (CYP2D6; human, concentration 25 μM): 13.6%
inhibition at 50 µM (CYP2D6; human, concentration 50 μM): 13.4%
inhibition activity against CYP, statement in words (CYP2D6; summary of Table 5): no inhibition activity
IC50 (CYP2C9; [6]): 44.8 µM
inhibition at 0.1 µM (CYP2C9; human, concentration 0.1 μM): 10.3%
inhibition at 0.5 µM (CYP2C9; human, concentration 0.5 μM): 8.79%
inhibition at 5 µM (CYP2C9; human, concentration 5 μM): 24.6%
inhibition at 10 µM (CYP2C9; human, concentration 10 μM): 30%
inhibition at 25 µM (CYP2C9; human, concentration 25 μM): 52.4%
inhibition at 50 µM (CYP2C9; human, concentration 50 μM): 53.4%
inhibition activity against CYP, statement in words (CYP2C9; summary of Table 5): no inhibition activity
IC50 (CYP1A2; [6]): > 50 µM
inhibition at 0.1 µM (CYP1A2; human, concentration 0.1 μM): 5.36%
inhibition at 0.5 µM (CYP1A2; human, concentration 0.5 μM): 4.67%
inhibition at 5 µM (CYP1A2; human, concentration 5 μM): -1.9%
inhibition at 10 µM (CYP1A2; human, concentration 10 μM): -3.46%
inhibition at 25 µM (CYP1A2; human, concentration 25 μM): -3.11%
inhibition at 50 µM (CYP1A2; human, concentration 50 μM): 2.08%
inhibition activity against CYP, statement in words (CYP1A2; summary of Table 5): no inhibition activity
inhibition at 10 µM (CYP2C19; concentration 10 μM): 37.3%
IC50 (CYP2C19; [6]): 16.6 µM
inhibition at 0.1 µM (CYP2C19; human, concentration 0.1 μM): 2.72%
inhibition at 0.5 µM (CYP2C19; human, concentration 0.5 μM): 3.23%
inhibition at 5 µM (CYP2C19; human, concentration 5 μM): 30%
inhibition at 25 µM (CYP2C19; human, concentration 25 μM): 66.1%
inhibition at 50 µM (CYP2C19; human, concentration 50 μM): 68%
inhibition activity against CYP, statement in words (CYP2C19; summary of Table 5): no inhibition activity
microsomal stability (% at time) (microsomal stability [4]; 0 min): 100.00%
microsomal stability (% at time) (microsomal stability [4]; 5 min): 77.02%
microsomal stability (% at time) (microsomal stability [4]; 10 min): 57.41%
microsomal stability (% at time) (microsomal stability [4]; 15 min): 44.70%
microsomal stability (% at time) (microsomal stability [4]; 30 min): 21.03%
microsomal stability (% at time) (microsomal stability [4]; 45 min): 8.23%
microsomal stability (% at time) (microsomal stability [4]; 60 min): 5.02%
half-life (microsomal stability [4]; microsomes, Dog microsomal stability): 0.225 h
GI50 [5]: < 1 µM
SMILES: CCN1CCN(c2ccc(Nc3cc(-n4c(Nc5c(Cl)c(OC)cc(OC)c5Cl)nc5ccccc54)ncn3)cc2)CC1 [Example 1, N-(2,6-dichloro-3,5-dimethoxyphenyl)-1-(6-((4-(4-ethylpiperazin-1-yl)phenyl)amino)pyrimidin-4-yl)-1H-benz[d]imidazol-2-amine]
